Source: patent publication US20250215030A1, “STAT MODULATORS AND USES THEREOF” (Recludix Pharma, Inc., priority 2022, published 2025)

What was measured:
[1] = biological target: T1, Recombinant STAT3 protein (STAT3(G127-I722)) (Homo sapiens, UniProt P40763); test: STAT3 Fluorescence Polarization (FP) Assay; format: binding; conditions: STAT3(G127-I722) 25 nM, probe 5-FAM-GpYLPQTV-NH2 2 nM, 45-minute incubation
T1 construct: STAT3(G127-I722)
Method in brief: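 Serially diluted compounds (1% DMSO) were mixed with 2 nM fluorescent phosphotyrosine peptide and 25 nM STAT3 construct G127-I722, pH 7.4, incubated 45 min at room temperature. IC50 values from fitted polarization curves are reported as categories A (≤100 nM), B, C, D (>10 μM).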

[2] = biological target: T2, Recombinant STAT6 protein (STAT6(W123-T658)) (Homo sapiens, UniProt P42226); test: STAT6 Fluorescence Polarization (FP) Assay; format: binding; conditions: STAT6(W123-T658) 250 nM, probe 5-FAM-ApYKPFQDLI-NH2 2 nM, 45-minute incubation
T2 construct: STAT6(W123-T658)
T2 sequence (P42226 123-658): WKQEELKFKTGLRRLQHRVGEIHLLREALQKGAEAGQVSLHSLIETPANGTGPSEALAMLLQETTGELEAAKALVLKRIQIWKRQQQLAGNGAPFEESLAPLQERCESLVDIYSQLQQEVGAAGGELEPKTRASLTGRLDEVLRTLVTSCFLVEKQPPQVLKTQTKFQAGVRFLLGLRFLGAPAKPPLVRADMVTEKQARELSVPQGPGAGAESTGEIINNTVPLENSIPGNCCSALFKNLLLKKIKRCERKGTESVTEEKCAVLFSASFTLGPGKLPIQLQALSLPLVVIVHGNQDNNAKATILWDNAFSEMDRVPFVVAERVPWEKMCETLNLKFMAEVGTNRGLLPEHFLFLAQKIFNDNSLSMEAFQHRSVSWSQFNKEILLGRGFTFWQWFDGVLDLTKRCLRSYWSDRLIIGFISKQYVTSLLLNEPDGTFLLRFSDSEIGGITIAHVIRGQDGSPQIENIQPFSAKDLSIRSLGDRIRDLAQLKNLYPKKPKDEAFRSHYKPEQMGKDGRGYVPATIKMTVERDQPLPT
Method in brief: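 Competitive displacement of a fluorescent phosphotyrosine peptide (2 nM) from recombinant STAT6 W123-T658 (250 nM), 45 min at room temperature in 10 mM HEPES pH 7.4, 50 mM NaCl, 2 mM DTT. mP fitted against log compound for IC50, grouped A (≤300 nM) to D (>30 μM).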

T1 sequence (P40763 127-722, species assumed): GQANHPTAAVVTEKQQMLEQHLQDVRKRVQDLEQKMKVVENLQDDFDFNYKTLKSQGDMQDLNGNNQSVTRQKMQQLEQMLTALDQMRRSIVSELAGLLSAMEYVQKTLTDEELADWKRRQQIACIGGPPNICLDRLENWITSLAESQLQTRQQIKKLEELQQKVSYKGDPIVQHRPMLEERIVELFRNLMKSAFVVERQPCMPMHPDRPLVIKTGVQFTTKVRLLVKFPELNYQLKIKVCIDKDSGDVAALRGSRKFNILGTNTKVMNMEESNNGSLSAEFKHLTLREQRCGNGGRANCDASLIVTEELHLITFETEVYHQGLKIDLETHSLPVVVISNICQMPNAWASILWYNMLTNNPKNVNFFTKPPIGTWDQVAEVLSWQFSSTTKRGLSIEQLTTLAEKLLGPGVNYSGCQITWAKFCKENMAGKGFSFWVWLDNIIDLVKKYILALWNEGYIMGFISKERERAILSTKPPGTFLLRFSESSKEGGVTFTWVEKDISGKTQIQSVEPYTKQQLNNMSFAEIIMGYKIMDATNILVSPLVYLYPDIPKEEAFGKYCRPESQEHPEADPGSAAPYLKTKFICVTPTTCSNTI

Compound | IC50 [1] [µM] | IC50 [2] [µM]
O=C(N[C@H]1C[C@H]2C[C@H]2C[C@H]2CC[C@@H](C(=O)N3CC(n4ccnc4)C3)N2C1=O)c1ccc2ccc(C(F)(F)P(=O)(O)O)cc2c1 [Compound 59, ((7-(((3S,6S,7aR,8aS,9aR)-3-(3-(1H-imidazol-1-yl)azetidine-1-carbonyl)-5-oxodecahydro-1H-cyclopropa[d]pyrrolo[1,2-a]azocin-6-yl)carbamoyl)naphthalen-2-yl)difluoromethyl)phosphonic acid] | < 0.1 | 3 to 30
CCOc1ccncc1C1CN(C(=O)[C@@H]2CC[C@@H]3C[C@H]4C[C@H]4C[C@H](NC(=O)c4cc5cc([C@@H](F)P(=O)(O)O)ccc5s4)C(=O)N32)C1 [Example 420, ((S)-(2-(((3S,6S,7aS,8aR,9aR)-3-(3-(4-ethoxypyridin-3-yl)azetidine-1-carbonyl)-5-oxodecahydro-1H-cyclopropa[d]pyrrolo[1,2-a]azocin-6-yl)carbamoyl)benzo[b]thiophen-5-yl)fluoromethyl)phosphonic acid] | < 0.1 | 3 to 30
O=C(N[C@H]1C[C@H]2[C@@H](C[C@H]3CC[C@@H](C(=O)N4CC(c5cccnc5)C4)N3C1=O)C2(F)F)c1cc2cc(C(F)(F)P(=O)(O)O)ccc2s1 [Compound 31, ((2-(((3S,6S,7aS,8aR,9aR)-8,8-difluoro-5-oxo-3-(3-(pyridin-3-yl)azetidine-1-carbonyl)decahydro-1H-cyclopropa[d]pyrrolo[1,2-a]azocin-6-yl)carbamoyl)benzo[b]thiophen-5-yl)difluoromethyl)phosphonic acid] | < 0.1 | 3 to 30
O=C(N[C@H]1C[C@@H]2C[C@@H]2C[C@H]2CC[C@@H](C(=O)N3CC(c4cnccc4N4CCOCC4)C3)N2C1=O)c1cc2cc([C@H](F)P(=O)(O)O)ccc2s1 (single isomer, unassigned) [Example 406] | < 0.1 | 3 to 30
CN1CCN(c2ccncc2C2CN(C(=O)[C@@H]3CC[C@@H]4C[C@H]5C[C@H]5C[C@H](NC(=O)c5cc6cc([C@H](F)P(=O)(O)O)ccc6s5)C(=O)N43)C2)CC1 (single isomer, unassigned) [Example 403] | < 0.1 | 3 to 30
O=C(N[C@H]1C[C@@H]2C[C@@H]2C[C@H]2CC[C@@H](C(=O)NC3CN([C@@H]4CCOC4)C3)N2C1=O)c1cc2cc(C(F)(F)P(=O)(O)O)ccc2s1 [Compound 53, (difluoro(2-(((3S,6S,7aS,8aR,9aR)-5-oxo-3-((1-((R)-tetrahydrofuran-3-yl)azetidin-3-yl)carbamoyl)decahydro-1H-cyclopropa[d]pyrrolo[1,2-a]azocin-6-yl)carbamoyl)benzo[b]thiophen-5-yl)methyl)phosphonic acid] | 0.1 to 1 | 3 to 30
COc1ccc(C2CCN(C(=O)[C@@H]3CC[C@@H]4C[C@H]5C[C@H]5C[C@H](NC(=O)c5cc6cc(C(F)(F)P(=O)(O)O)ccc6s5)C(=O)N43)C2)cn1 (stereo partly drawn) [Compound 88, (difluoro(2-(((3S,6S,7aS,8aR,9aR)-3-(3-(6-methoxypyridin-3-yl)pyrrolidine-1-carbonyl)-5-oxodecahydro-1H-cyclopropa[d]pyrrolo[1,2-a]azocin-6-yl)carbamoyl)benzo[b]thiophen-5-yl)methyl)phosphonic acid] | < 0.1 | 0.3 to 3
CC1(O)CCN(C2CN(C(=O)[C@@H]3CC[C@@H]4C[C@H]5C[C@H]5C[C@H](NC(=O)c5cc6cc(C(F)(F)P(=O)(O)O)ccc6s5)C(=O)N43)C2)CC1 [Compound 110, (difluoro(2-(((3S,6S,7aS,8aR,9aR)-3-(3-(4-hydroxy-4-methylpiperidin-1-yl)azetidine-1-carbonyl)-5-oxodecahydro-1H-cyclopropa[d]pyrrolo[1,2-a]azocin-6-yl)carbamoyl)benzo[b]thiophen-5-yl)methyl)phosphonic acid] | 0.1 to 1 | 3 to 30
O=C(N[C@H]1C[C@@H]2C[C@@H]2C[C@H]2CC[C@@H](C(=O)N3CC(C(=O)N4CCOCC4)C3)N2C1=O)c1cc2cc(C(F)(F)P(=O)(O)O)ccc2s1 [Compound 15, (difluoro(2-(((3S,6S,7aS,8aR,9aR)-3-(3-(morpholine-4-carbonyl)azetidine-1-carbonyl)-5-oxodecahydro-1H-cyclopropa[d]pyrrolo[1,2-a]azocin-6-yl)carbamoyl)benzo[b]thiophen-5-yl)methyl)phosphonic acid] | < 0.1 | 3 to 30
((S)-fluoro(2-(((3S,6S,7aS,8aR,9aR)-3-(3-(morpholine-4-carbonyl)azetidine-1-carbonyl)-5-oxodecahydro-1H-cyclopropa[d]pyrrolo[1,2-a]azocin-6-yl)carbamoyl)benzo[b]thiophen-5-yl)methyl)phosphonic acid Or ((R)-fluoro(2-(((3S,6S,7aS,8aR,9aR)-3-(3-(morpholine-4-carbonyl)azetidine-1-carbonyl)-5-oxodecahydro-1H-cyclopropa[d]pyrrolo[1,2-a]azocin-6-yl)carbamoyl)benzo[b]thiophen-5-yl)methyl)phosphonic acid [Compound 34] | 0.1 to 1 | > 30
Cc1nnc(C2CN(C(=O)[C@@H]3CC[C@@H]4C[C@@H]5C[C@@H]5C[C@H](NC(=O)c5cc6cc(C(F)(F)P(=O)(O)O)ccc6s5)C(=O)N43)C2)[nH]1 [Compound 81, (difluoro(2-(((3S,6S,7aR,8aS,9aR)-3-(3-(5-methyl-4H-1,2,4-triazol-3-yl)azetidine-1-carbonyl)-5-oxodecahydro-1H-cyclopropa[d]pyrrolo[1,2-a]azocin-6-yl)carbamoyl)benzo[b]thiophen-5-yl)methyl)phosphonic acid] | < 0.1 | 0.3 to 3
O=C(N[C@H]1C[C@@H]2C[C@@H]2C[C@H]2CC[C@@H](C(=O)N3CC[C@@H](N4CCOCC4)C3)N2C1=O)c1cc2cc(C(F)(F)P(=O)(O)O)ccc2s1 [Compound 16, (difluoro(2-(((3S,6S,7aS,8aR,9aR)-3-((R)-3-morpholinopyrrolidine-1-carbonyl)-5-oxodecahydro-1H-cyclopropa[d]pyrrolo[1,2-a]azocin-6-yl)carbamoyl)benzo[b]thiophen-5-yl)methyl)phosphonic acid] | 0.1 to 1 | 3 to 30
((R)-fluoro(2-(((3S,6S,7aS,8aR,9aR)-3-(3-(morpholine-4-carbonyl)azetidine-1-carbonyl)-5-oxodecahydro-1H-cyclopropa[d]pyrrolo[1,2-a]azocin-6-yl)carbamoyl)benzo[b]thiophen-5-yl)methyl)phosphonic acid or ((S)-fluoro(2-(((3S,6S,7aS,8aR,9aR)-3-(3-(morpholine-4-carbonyl)azetidine-1-carbonyl)-5-oxodecahydro-1H-cyclopropa[d]pyrrolo[1,2-a]azocin-6-yl)carbamoyl)benzo[b]thiophen-5-yl)methyl)phosphonic acid [Compound 33] | < 0.1 | 3 to 30
O=C(N[C@H]1C[C@@H]2C[C@@H]2C[C@H]2CC[C@@H](C(=O)N3CC(n4ccnc4)C3)N2C1=O)c1cc2cc(C(F)(F)P(=O)(O)O)ccc2s1 [Compound 94] | < 0.1 | 3 to 30
CCc1ccncc1C1CN(C(=O)[C@@H]2CC[C@@H]3C[C@@H]4C[C@@H]4C[C@H](NC(=O)c4cc5cc([C@@H](F)P(=O)(O)O)ccc5s4)C(=O)N32)C1 (single isomer, unassigned) [Example 357] | < 0.1 | 3 to 30
